Numbers after ± are expanded uncertainties.
Assay: xn = mol fraction of the nth substance listed
Conditions: Fluid (supercritical or subcritical phases)

[N-]=[N+]=O [nitrous oxide] + FC(F)F
isochoric method
Conditions	molar volume [m3/mol]
253.03 K, 1464.8 kPa, x1 = 0.1116	0.001035 ± 1e-06
253.09 K, 1627.2 kPa, x1 = 0.4162	0.000978 ± 1e-06
258 K, 1541.9 kPa, x1 = 0.1116	0.001035 ± 1e-06
258.06 K, 1905.9 kPa, x1 = 0.563	0.000867 ± 1e-06
258.08 K, 1718.9 kPa, x1 = 0.4162	0.000978 ± 1e-06
258.09 K, 1832.3 kPa, x1 = 0.2888	0.000828 ± 1e-06
262.96 K, 1968.2 kPa, x1 = 0.563	0.000867 ± 1e-06
263.06 K, 1593.9 kPa, x1 = 0.1116	0.001035 ± 1e-06
263.06 K, 1774.4 kPa, x1 = 0.4162	0.000979 ± 1e-06
263.08 K, 1926.6 kPa, x1 = 0.2888	0.000829 ± 1e-06
267.94 K, 2030.3 kPa, x1 = 0.563	0.000867 ± 1e-06
268 K, 1644.1 kPa, x1 = 0.1116	0.001035 ± 1e-06
268.04 K, 1829.1 kPa, x1 = 0.4162	0.000979 ± 1e-06
268.04 K, 1991.7 kPa, x1 = 0.2888	0.000829 ± 1e-06
268.04 K, 2663.9 kPa, x1 = 0.6362	0.000591 ± 1e-06
272.9 K, 1693.3 kPa, x1 = 0.1116	0.001035 ± 1e-06
272.93 K, 2055.2 kPa, x1 = 0.2888	0.000829 ± 1e-06
272.95 K, 2091.7 kPa, x1 = 0.563	0.000867 ± 1e-06
273.02 K, 2765.9 kPa, x1 = 0.6362	0.000591 ± 1e-06
273.03 K, 1883 kPa, x1 = 0.4162	0.000979 ± 1e-06
282.83 K, 2180.4 kPa, x1 = 0.2888	0.000829 ± 1e-06
282.84 K, 1790.6 kPa, x1 = 0.1116	0.001036 ± 1e-06
283 K, 1988.8 kPa, x1 = 0.4162	0.000979 ± 1e-06
283 K, 2957.6 kPa, x1 = 0.6362	0.000591 ± 1e-06
283.02 K, 2213.7 kPa, x1 = 0.563	0.000868 ± 1e-06
292.93 K, 3143.3 kPa, x1 = 0.6362	0.000591 ± 1e-06
293.06 K, 1887.6 kPa, x1 = 0.1116	0.001036 ± 1e-06
293.07 K, 2332 kPa, x1 = 0.563	0.000868 ± 1e-06
293.08 K, 2094.2 kPa, x1 = 0.4162	0.00098 ± 1e-06
298.02 K, 3235.8 kPa, x1 = 0.6362	0.000591 ± 1e-06
298.05 K, 1934.6 kPa, x1 = 0.1116	0.001037 ± 1e-06
298.08 K, 2145.4 kPa, x1 = 0.4162	0.00098 ± 1e-06
298.09 K, 2390.3 kPa, x1 = 0.563	0.000868 ± 1e-06
298.1 K, 2367.2 kPa, x1 = 0.2888	0.00083 ± 1e-06
308.02 K, 2027.4 kPa, x1 = 0.1116	0.001037 ± 1e-06
308.05 K, 3416.1 kPa, x1 = 0.6362	0.000592 ± 1e-06
308.06 K, 2246.6 kPa, x1 = 0.4162	0.000981 ± 1e-06
308.08 K, 2486.6 kPa, x1 = 0.2888	0.00083 ± 1e-06
308.42 K, 2509 kPa, x1 = 0.563	0.000869 ± 1e-06
317.83 K, 2615.8 kPa, x1 = 0.563	0.000869 ± 1e-06
318.02 K, 2345.8 kPa, x1 = 0.4162	0.000981 ± 1e-06
318.02 K, 2603.8 kPa, x1 = 0.2888	0.000831 ± 1e-06
318.03 K, 3592.6 kPa, x1 = 0.6362	0.000592 ± 1e-06
318.11 K, 2119.5 kPa, x1 = 0.1116	0.001037 ± 1e-06
328.1 K, 2210.6 kPa, x1 = 0.1116	0.001038 ± 1e-06
328.1 K, 2731.1 kPa, x1 = 0.563	0.000869 ± 1e-06
328.11 K, 2445.5 kPa, x1 = 0.4162	0.000981 ± 1e-06
328.12 K, 3768.5 kPa, x1 = 0.6362	0.000592 ± 1e-06
328.13 K, 2721.6 kPa, x1 = 0.2888	0.000831 ± 1e-06
338.08 K, 2300.2 kPa, x1 = 0.1116	0.001038 ± 1e-06
338.08 K, 2543.3 kPa, x1 = 0.4162	0.000982 ± 1e-06
338.08 K, 2836.1 kPa, x1 = 0.2888	0.000831 ± 1e-06
338.09 K, 2842.1 kPa, x1 = 0.563	0.00087 ± 1e-06
338.09 K, 3939.9 kPa, x1 = 0.6362	0.000592 ± 1e-06
348.06 K, 2388.8 kPa, x1 = 0.1116	0.001039 ± 1e-06
348.06 K, 2949.9 kPa, x1 = 0.2888	0.000832 ± 1e-06
348.06 K, 2951.9 kPa, x1 = 0.563	0.00087 ± 1e-06
348.07 K, 2640.2 kPa, x1 = 0.4162	0.000982 ± 1e-06
348.07 K, 4110.3 kPa, x1 = 0.6362	0.000593 ± 1e-06
358.03 K, 2476.8 kPa, x1 = 0.1116	0.001039 ± 1e-06
358.03 K, 3062.3 kPa, x1 = 0.2888	0.000832 ± 1e-06
358.04 K, 2736.3 kPa, x1 = 0.4162	0.000983 ± 1e-06
358.05 K, 3061.1 kPa, x1 = 0.563	0.00087 ± 1e-06
358.05 K, 4278.2 kPa, x1 = 0.6362	0.000593 ± 1e-06

[N-]=[N+]=O [nitrous oxide] + FCF
Other PVT measurement
Conditions	molar volume [m3/mol]
283.32 K, 2978.6 kPa, x1 = 0.8042	0.000562 ± 1e-06
288.38 K, 3087.3 kPa, x1 = 0.8042	0.000562 ± 1e-06
293.46 K, 3188.3 kPa, x1 = 0.8042	0.000563 ± 1e-06
298.54 K, 2796 kPa, x1 = 0.5068	0.000644 ± 1e-06
298.6 K, 3286 kPa, x1 = 0.8042	0.000563 ± 1e-06
303.68 K, 2903.7 kPa, x1 = 0.5068	0.000644 ± 1e-06
303.68 K, 2988.3 kPa, x1 = 0.4207	0.000594 ± 1e-06
303.68 K, 3381.2 kPa, x1 = 0.8042	0.000563 ± 1e-06
308.76 K, 3475.8 kPa, x1 = 0.8042	0.000563 ± 1e-06
308.77 K, 2774.4 kPa, x1 = 0.2255	0.000631 ± 1e-06
308.77 K, 2991.7 kPa, x1 = 0.5068	0.000645 ± 1e-06
308.77 K, 3091.8 kPa, x1 = 0.4207	0.000594 ± 1e-06
313.85 K, 3190.6 kPa, x1 = 0.4207	0.000595 ± 1e-06
313.85 K, 3569.2 kPa, x1 = 0.8042	0.000563 ± 1e-06
313.86 K, 2875.7 kPa, x1 = 0.2255	0.000631 ± 1e-06
313.87 K, 3078.9 kPa, x1 = 0.5068	0.000645 ± 1e-06
318.94 K, 3288.2 kPa, x1 = 0.4207	0.000595 ± 1e-06
318.94 K, 3661.8 kPa, x1 = 0.8042	0.000563 ± 1e-06
318.95 K, 2971.2 kPa, x1 = 0.2255	0.000631 ± 1e-06
318.95 K, 3164.6 kPa, x1 = 0.5068	0.000645 ± 1e-06
324.03 K, 3384.5 kPa, x1 = 0.4207	0.000595 ± 1e-06
324.03 K, 3753.8 kPa, x1 = 0.8042	0.000563 ± 1e-06
324.04 K, 3064.8 kPa, x1 = 0.2255	0.000631 ± 1e-06
324.04 K, 3249.6 kPa, x1 = 0.5068	0.000645 ± 1e-06
329.13 K, 3157.2 kPa, x1 = 0.2255	0.000632 ± 1e-06
329.13 K, 3845.1 kPa, x1 = 0.8042	0.000563 ± 1e-06
329.14 K, 3334.1 kPa, x1 = 0.5068	0.000645 ± 1e-06
329.14 K, 3479.7 kPa, x1 = 0.4207	0.000595 ± 1e-06
334.22 K, 3248.1 kPa, x1 = 0.2255	0.000632 ± 1e-06
334.22 K, 3573.4 kPa, x1 = 0.4207	0.000595 ± 1e-06
334.23 K, 3417.4 kPa, x1 = 0.5068	0.000645 ± 1e-06
334.23 K, 3935.9 kPa, x1 = 0.8042	0.000564 ± 1e-06
339.33 K, 3338.3 kPa, x1 = 0.2255	0.000632 ± 1e-06
339.33 K, 3500 kPa, x1 = 0.5068	0.000645 ± 1e-06
339.34 K, 3666.5 kPa, x1 = 0.4207	0.000595 ± 1e-06
339.35 K, 4026.2 kPa, x1 = 0.8042	0.000564 ± 1e-06
344.43 K, 3581.9 kPa, x1 = 0.5068	0.000646 ± 1e-06
344.43 K, 3758.3 kPa, x1 = 0.4207	0.000595 ± 1e-06
344.43 K, 4115.4 kPa, x1 = 0.8042	0.000564 ± 1e-06
344.44 K, 3427.2 kPa, x1 = 0.2255	0.000632 ± 1e-06
353.6 K, 3922.3 kPa, x1 = 0.4207	0.000596 ± 1e-06
354.61 K, 3602.1 kPa, x1 = 0.2255	0.000632 ± 1e-06
354.62 K, 4293 kPa, x1 = 0.8042	0.000564 ± 1e-06
